Patent publication US9326506B2, “Preparation method, agricultural composition and applications of natural brassinolide analogs” (CHENGDU NEWSUN CROPSCIENCE CO., LTD, priority 2012, dated 2016)

System: rice
Experiment: Low temperature assay on rice seedlings
Assay type: in vivo
Method: According to a low temperature assay, we measured parameters including plant height, number of leaf, area of leaf, number of tiller, weight of root at low temperature to completely determine effects of the natural brassinolide analogues on the resistance to low temperature of a plant.
The natural brassinolide analogues, BR1, BR2, BR3, BR4, BR5 and BR6, used herein, were those prepared by the method of Example 1. Respectively the analogues were dissolved into 95% (V/V) ethanol solution, and then diluted with pure water to 1 mg/L, 0.1 mg/L, 0.01 mg/L, 0.001 mg/L and 0.0001 mg/L. In addition, pure water was used as a control.
After rice seeds were disinfected by using 5% sodium hypochlorite solution treatment, they were rinsed with distilled water until their pH>7, placed into a petri dish in a dark incubator, and cultured by using water at 30° C.±2° C. for 9 days. Then respectively the nine-day-old etiolated seedlings of rice were immersed in the above solutions containing different concentrations of the natural brassinolide analogues or pure water, and cultured at the temperature of 1° C., 2° C., 3° C., 4° C. and 5° C. for 24 hr. The parameters including plant height, area of leaf and weight of root after 3, 6, 9 and 12 days and number of leaf and number of tiller after 12 days were measured.

## CC(C)[C@H](C)[C@@H](O)[C@H](O)[C@@H](C)[C@H]1CCC2C3CC(=O)C4C[C@H](O)CC[C@]4(C)C3CC[C@@]21C (stereo partly shown) [BR4]
0.0001 mg/l, 1 °C, 3 days
  Area of leaf: 9.8 cm^2
  Height: 6.8 cm
  Weight of root: 2.8 g
0.0001 mg/l, 1 °C, 6 days
  Area of leaf: 11 cm^2
  Height: 6.9 cm
  Weight of root: 3 g
0.0001 mg/l, 1 °C, 9 days
  Area of leaf: 12.2 cm^2
  Height: 7 cm
  Weight of root: 3.1 g
0.0001 mg/l, 1 °C, 12 days
  Area of leaf: 13 cm^2
  Height: 7.2 cm
  Number of leaf: 3
  Number of tiller: 3
  Weight of root: 3.5 g
0.0001 mg/l, 2 °C, 3 days
  Area of leaf: 10 cm^2
  Height: 6.8 cm
  Weight of root: 2.8 g
0.0001 mg/l, 2 °C, 6 days
  Area of leaf: 11.7 cm^2
  Height: 7 cm
  Weight of root: 3.0 g
0.0001 mg/l, 2 °C, 9 days
  Area of leaf: 12 cm^2
  Height: 7.1 cm
  Weight of root: 3.2 g
0.0001 mg/l, 2 °C, 12 days
  Area of leaf: 13 cm^2
  Height: 7.2 cm
  Number of leaf: 3
  Number of tiller: 3
  Weight of root: 3.7 g
0.0001 mg/l, 3 °C, 3 days
  Area of leaf: 10 cm^2
  Height: 6.9 cm
  Weight of root: 2.5 g
0.0001 mg/l, 3 °C, 6 days
  Area of leaf: 11.8 cm^2
  Height: 7.1 cm
  Weight of root: 2.6 g
0.0001 mg/l, 3 °C, 9 days
  Area of leaf: 12.1 cm^2
  Height: 7.4 cm
  Weight of root: 2.9 g
0.0001 mg/l, 3 °C, 12 days
  Area of leaf: 13 cm^2
  Height: 7.4 cm
  Number of leaf: 3
  Number of tiller: 2
  Weight of root: 2.9 g
0.0001 mg/l, 4 °C, 3 days
  Area of leaf: 10 cm^2
  Height: 6.9 cm
  Weight of root: 2.5 g
0.0001 mg/l, 4 °C, 6 days
  Area of leaf: 11.5 cm^2
  Height: 7.1 cm
  Weight of root: 2.6 g
0.0001 mg/l, 4 °C, 9 days
  Area of leaf: 13 cm^2
  Height: 7.5 cm
  Weight of root: 2.9 g
0.0001 mg/l, 4 °C, 12 days
  Area of leaf: 13.4 cm^2
  Height: 7.5 cm
  Number of leaf: 3
  Number of tiller: 2
  Weight of root: 2.9 g
0.0001 mg/l, 5 °C, 3 days
  Area of leaf: 10.2 cm^2
  Height: 7.0 cm
  Weight of root: 2.5 g
0.0001 mg/l, 5 °C, 6 days
  Area of leaf: 12 cm^2
  Height: 7.3 cm
  Weight of root: 2.5 g
0.0001 mg/l, 5 °C, 9 days
  Area of leaf: 13 cm^2
  Height: 7.5 cm
  Weight of root: 2.9 g
0.0001 mg/l, 5 °C, 12 days
  Area of leaf: 13.4 cm^2
  Height: 7.6 cm
  Number of leaf: 3
  Number of tiller: 2
  Weight of root: 2.9 g
0.001 mg/l, 1 °C, 3 days
  Area of leaf: 10 cm^2
  Height: 6.9 cm
  Weight of root: 2.8 g
0.001 mg/l, 1 °C, 6 days
  Area of leaf: 11.3 cm^2
  Height: 7 cm
  Weight of root: 3.1 g
0.001 mg/l, 1 °C, 9 days
  Area of leaf: 12.6 cm^2
  Height: 7.1 cm
  Weight of root: 3.2 g
0.001 mg/l, 1 °C, 12 days
  Area of leaf: 13.6 cm^2
  Height: 7.4 cm
  Number of leaf: 3
  Number of tiller: 3
  Weight of root: 3.7 g
0.001 mg/l, 2 °C, 3 days
  Area of leaf: 9.8 cm^2
  Height: 6.9 cm
  Weight of root: 2.8 g
0.001 mg/l, 2 °C, 6 days
  Area of leaf: 11.6 cm^2
  Height: 7 cm
  Weight of root: 3.0 g
0.001 mg/l, 2 °C, 9 days
  Area of leaf: 12 cm^2
  Height: 7.1 cm
  Weight of root: 3 g
0.001 mg/l, 2 °C, 12 days
  Area of leaf: 13.1 cm^2
  Height: 7.3 cm
  Number of leaf: 3
  Number of tiller: 3
  Weight of root: 3.9 g
0.001 mg/l, 3 °C, 3 days
  Area of leaf: 10 cm^2
  Height: 7 cm
  Weight of root: 2.5 g
0.001 mg/l, 3 °C, 6 days
  Area of leaf: 12 cm^2
  Height: 7.2 cm
  Weight of root: 2.6 g
0.001 mg/l, 3 °C, 9 days
  Area of leaf: 12.2 cm^2
  Height: 7.4 cm
  Weight of root: 2.9 g
0.001 mg/l, 3 °C, 12 days
  Area of leaf: 13 cm^2
  Height: 7.5 cm
  Number of leaf: 3
  Number of tiller: 2
  Weight of root: 2.9 g
0.001 mg/l, 4 °C, 3 days
  Area of leaf: 10 cm^2
  Height: 7.1 cm
  Weight of root: 2.5 g
0.001 mg/l, 4 °C, 6 days
  Area of leaf: 12 cm^2
  Height: 7.3 cm
  Weight of root: 2.6 g
0.001 mg/l, 4 °C, 9 days
  Area of leaf: 13 cm^2
  Height: 7.4 cm
  Weight of root: 2.9 g
0.001 mg/l, 4 °C, 12 days
  Area of leaf: 13.1 cm^2
  Height: 7.5 cm
  Number of leaf: 3
  Number of tiller: 2
  Weight of root: 2.9 g
0.001 mg/l, 5 °C, 3 days
  Area of leaf: 10.2 cm^2
  Height: 7.2 cm
  Weight of root: 2.8 g
0.001 mg/l, 5 °C, 6 days
  Area of leaf: 14 cm^2
  Height: 7.4 cm
  Weight of root: 2.9 g
0.001 mg/l, 5 °C, 9 days
  Area of leaf: 15.4 cm^2
  Height: 7.4 cm
  Weight of root: 3.0 g
0.001 mg/l, 5 °C, 12 days
  Area of leaf: 16 cm^2
  Height: 7.9 cm
  Number of leaf: 3
  Number of tiller: 3
  Weight of root: 3.7 g
0.01 mg/l, 1 °C, 3 days
  Area of leaf: 9.2 cm^2
  Height: 6.7 cm
  Weight of root: 2.8 g
0.01 mg/l, 1 °C, 6 days
  Area of leaf: 11.6 cm^2
  Height: 7.1 cm
  Weight of root: 3.0 g
0.01 mg/l, 1 °C, 9 days
  Area of leaf: 12.4 cm^2
  Height: 7.4 cm
  Weight of root: 3.1 g
0.01 mg/l, 1 °C, 12 days
  Area of leaf: 13.6 cm^2
  Height: 7.5 cm
  Number of leaf: 3
  Number of tiller: 3
  Weight of root: 3.9 g
0.01 mg/l, 2 °C, 3 days
  Area of leaf: 10 cm^2
  Height: 7 cm
  Weight of root: 2.8 g
0.01 mg/l, 2 °C, 6 days
  Area of leaf: 11 cm^2
  Height: 7.2 cm
  Weight of root: 3 g
0.01 mg/l, 2 °C, 9 days
  Area of leaf: 12.5 cm^2
  Height: 7.4 cm
  Weight of root: 3 g
0.01 mg/l, 2 °C, 12 days
  Area of leaf: 13.4 cm^2
  Height: 7.5 cm
  Number of leaf: 3
  Number of tiller: 3
  Weight of root: 3.2 g
0.01 mg/l, 3 °C, 3 days
  Area of leaf: 10.2 cm^2
  Height: 7 cm
  Weight of root: 2.5 g
0.01 mg/l, 3 °C, 6 days
  Area of leaf: 12 cm^2
  Height: 7.3 cm
  Weight of root: 2.6 g
0.01 mg/l, 3 °C, 9 days
  Area of leaf: 12.1 cm^2
